Measurements published in ChEMBL document CHEMBL3885861, “Open TG-GATES”.

Species: Rattus norvegicus
Experiment: Open TG-GATES - Regimen: Daily Repeat
Format: toxicity, organism-based, Sprague-Dawley
Design: regimen Daily Repeat, gender Male, age 6 weeks
Conditions: in vivo, po, 100 mg/kg, route gavage, dose level Middle; for APTT / Bas / Eos / Fbg / Hb / Ht / Lym / MCH / MCHC / MCV / Mono / Neu / PT / Plat / RBC / Ret / WBC: tissue Blood; for KIDNEY_L / KIDNEY_R / KIDNEY_TOTAL: tissue Kidney; for LIVER: tissue Liver; for A/G / ALP / ALT / AST / BUN / CRE / Ca / Cl / DBIL / GLC / IP / K / LDH / Na / PL / RALB / TBIL / TC / TG / TP / gamma-GTP: tissue Plasma

## CCCNC(=O)NS(=O)(=O)c1ccc(Cl)cc1 [CHLORPROPAMIDE]
72 h, time 3 day
  TERMINAL_BW: 208.2 g
  APTT: 17.5 s
  Bas: 0%
  Eos: 1%
  Fbg: 275.8 mg/dL
  Hb: 13 g/dL
  Ht: 40.2%
  Lym: 77.2%
  MCH: 20.8 pg
  MCHC: 32.5%
  MCV: 64.1 fL
  Mono: 2.6%
  Neu: 18.2%
  PT: 16.2 s
  Plat: 111.5 x10_4/uL
  RBC: 626.8 x10_4/ul
  Ret: 6.2%
  WBC: 65.6 x10_2/uL
  KIDNEY_L: 0.9 g
  KIDNEY_R: 0.9 g
  KIDNEY_TOTAL: 1.8 g
  LIVER: 9.3 g
  A/G: 0.8
  ALP: 1720.4 IU/L
  ALT: 49.2 IU/L
  AST: 71.2 IU/L
  BUN: 17 mg/dL
  CRE: 0.2 mg/dL
  Ca: 10.6 mg/dL
  Cl: 106.6 meq/L
  DBIL: 0.008 mg/dL
  GLC: 174.6 mg/dL
  IP: 7.7 mg/dL
  K: 3.7 meq/L
  LDH: 65.6 IU/L
  Na: 142.6 meq/L
  PL: 154.6 mg/dL
  RALB: 2.6 g/dL
  TBIL: 0.022 mg/dL
  TC: 85.4 mg/dL
  TG: 76.6 mg/dL
  TP: 5.7 g/dL
  gamma-GTP: 1 IU/L
[…], time 7 day
  TERMINAL_BW: 237.9 g
  APTT: 17.8 s
  Bas: 0%
  Eos: 1%
  Fbg: 277.2 mg/dL
  Hb: 13.2 g/dL
  Ht: 39.7%
  Lym: 77.8%
  MCH: 20.7 pg
  MCHC: 33.2%
  MCV: 62.3 fL
  Mono: 2.8%
  Neu: 17.2%
  PT: 16 s
  Plat: 112.6 x10_4/uL
  RBC: 638 x10_4/ul
  Ret: 6.6%
  WBC: 118.8 x10_2/uL
  KIDNEY_L: 1 g
  KIDNEY_R: 1 g
  KIDNEY_TOTAL: 2 g
  LIVER: 11.4 g
  A/G: 0.8
  ALP: 1392.6 IU/L
  ALT: 50 IU/L
  AST: 74.2 IU/L
  BUN: 18.2 mg/dL
  CRE: 0.2 mg/dL
  Ca: 10.8 mg/dL
  Cl: 107 meq/L
  DBIL: 0.01 mg/dL
  GLC: 194.2 mg/dL
  IP: 7.4 mg/dL
  K: 3.6 meq/L
  LDH: 81.8 IU/L
  Na: 144.4 meq/L
  PL: 162.2 mg/dL
  RALB: 2.6 g/dL
  TBIL: 0.03 mg/dL
  TC: 85.4 mg/dL
  TG: 105.4 mg/dL
  TP: 5.7 g/dL
  gamma-GTP: 1 IU/L
[…], time 14 day
  TERMINAL_BW: 287.5 g
  APTT: 17.7 s
  Bas: 0.2%
  Eos: 0.8%
  Fbg: 275.8 mg/dL
  Hb: 13.8 g/dL
  Ht: 40.9%
  Lym: 79.4%
  MCH: 20.8 pg
  MCHC: 33.6%
  MCV: 62 fL
  Mono: 2.2%
  Neu: 16.4%
  PT: 16 s
  Plat: 107 x10_4/uL
  RBC: 660.4 x10_4/ul
  Ret: 4.7%
  WBC: 97.8 x10_2/uL
  KIDNEY_L: 1.2 g
  KIDNEY_R: 1.2 g
  KIDNEY_TOTAL: 2.4 g
  LIVER: 13.6 g
  A/G: 0.8
  ALP: 1782.8 IU/L
  ALT: 41 IU/L
  AST: 63 IU/L
  BUN: 18.8 mg/dL
  CRE: 0.2 mg/dL
  Ca: 10.6 mg/dL
  Cl: 105.8 meq/L
  DBIL: 0.01 mg/dL
  GLC: 208.4 mg/dL
  IP: 7.7 mg/dL
  K: 3.5 meq/L
  LDH: 99.6 IU/L
  Na: 144.6 meq/L
  PL: 170.2 mg/dL
  RALB: 2.7 g/dL
  TBIL: 0.02 mg/dL
  TC: 77.2 mg/dL
  TG: 175 mg/dL
  TP: 5.9 g/dL
  gamma-GTP: 1 IU/L
[…], time 28 day
  TERMINAL_BW: 344.3 g
  APTT: 19.5 s
  Bas: 0%
  Eos: 1%
  Fbg: 290.4 mg/dL
  Hb: 14.6 g/dL
  Ht: 43.4%
  Lym: 76.4%
  MCH: 19.4 pg
  MCHC: 33.5%
  MCV: 57.8 fL
  Mono: 2.6%
  Neu: 18.6%
  PT: 16.2 s
  Plat: 107.8 x10_4/uL
  RBC: 751 x10_4/ul
  Ret: 2.5%
  WBC: 90.2 x10_2/uL
  KIDNEY_L: 1.2 g
  KIDNEY_R: 1.3 g
  KIDNEY_TOTAL: 2.5 g
  LIVER: 14.2 g
  A/G: 0.8
  ALP: 1238 IU/L
  ALT: 40.2 IU/L
  AST: 64 IU/L
  BUN: 16.2 mg/dL
  CRE: 0.2 mg/dL
  Ca: 10.4 mg/dL
  Cl: 107.4 meq/L
  DBIL: 0.008 mg/dL
  GLC: 196.6 mg/dL
  IP: 6.5 mg/dL
  K: 3.2 meq/L
  LDH: 72.6 IU/L
  Na: 144.8 meq/L
  PL: 158.8 mg/dL
  RALB: 2.7 g/dL
  TBIL: 0.016 mg/dL
  TC: 73.4 mg/dL
  TG: 149.6 mg/dL
  TP: 6 g/dL
  gamma-GTP: 1 IU/L
